Measured values: patent publication US10537609B2, “MUC1 decoy peptides for treatment and prevention of bacterial infections” (priority 2014, dated 2020)

Key:
[1] = tested on: P. aeruginosa (Pa) adhesion to A549 cells; test: Bacterial adhesion assay: Pa preincubated with test material, then adhesion to A549 cell monolayers; settings: for blocking of Pa adhesion to ECs by free monosaccharides: Pa preincubated 30 min with 5, 10 or 25 mM, separately or in combination (FIG. 10); for reduction of Pa adhesion: Pa preincubated 30 min with shed MUC1-ED preparation, adhesion to fresh A549 monolayers, compared with respective controls (FIG. 11)
MUC1-NEU1 association = settings: A549 cells preincubated 30 min with 5.0 μM, then 10 ng/ml Pa flagellin 30 min
[2] = tested on: Pseudomonas aeruginosa lung infection; test: Mouse survival following Pseudomonas aeruginosa lung infection; format: in vivo, BALB/c mice; settings: Pa intranasally at LD90 (2.0×10^7 CFU/mouse); MUC1-ED 2.5 μg/mouse, cefepime 1.0 μg/mouse; n=7/group
Method: FIG. 14. Effect of E. coli MUC1-ED With or Without Cefepime on Mouse Survival Following Pseudomonas aeruginosa Lung Infection. Pseudomonas aeruginosa was administered intranasally to BALB/c mice at an LD90 (2.0×10^7 CFU/mouse) with PBS control or E. coli-expressed MUC1-ED (2.5 μg/mouse). Simultaneously, PBS or cefepime (1.0 μg/mouse) was administered intraperitoneally, and mouse survival was measured daily (n=7/group).
P. aeruginosa was administered intranasally to groups of seven BALB/c mice at an LD90 (2.0×10^7 CFU/mouse). The control group (group #1) received PBS intraperitoneally as therapy; group #2 received MUC1-ED (2.5 μg/mouse) intraperitoneally; group #3 received cefepime (1.0 μg/mouse) intraperitoneally; group #4 received MUC1-ED (2.5 μg/mouse) and cefepime (1.0 μg/mouse) simultaneously, intraperitoneally. The MUC1-ED was E. coli-expressed deglycosylated peptide having the amino acid sequence set forth in SEQ ID NO:2.

Pa lung infection = test: Mouse model of Pa lung infection, Pa CFU in BALF and lungs; settings: Pa preincubated with MUC1-ED; 10^5 CFU/mouse i.t.; 48 h and 72 h post-challenge; vs PBS control

| Compound | blocking of Pa adhesion to ECs by free monosaccharides [1] | reduction of Pa adhesion [1] | also measured |
| --- | --- | --- | --- |
| CC(=O)N[C@H]1C(O)O[C@H](CO)[C@H](O)[C@@H]1O (some centres unmarked) [N-acetylgalactosamine, reference compound] | None of these monosaccharides, either separately or in combination, blocked Pa adhesion to ECs |  |  |
| CC(=O)N[C@H]1C(O)O[C@H](CO)[C@@H](O)[C@@H]1O (some centres unmarked) [N-acetylglucosamine, reference compound] | None of these monosaccharides, either separately or in combination, blocked Pa adhesion to ECs |  |  |
| N#CC(=C(/N)Sc1ccccc1N)/C(C#N)=C(\N)Sc1ccccc1N [U0126] |  |  | effect on MUC1-NEU1 co-immunoprecipitation (MUC1-NEU1 association): failed to alter MUC1-NEU1 co-immunoprecipitation |
| CO/N=C(\C(=O)N[C@@H]1C(=O)N2C(C(=O)[O-])=C(C[N+]3(C)CCCC3)CS[C@H]12)c1csc(N)n1 [cefepime, reference compound] |  |  | survival over seven days [2]: ~62.5% |
| O=C[C@H](O)[C@@H](O)[C@@H](O)[C@H](O)CO [galactose, reference compound] | None of these monosaccharides, either separately or in combination, blocked Pa adhesion to ECs |  |  |
| MUC1-ED from E. coli transformed with pMUC1: deglycosylated form of MUC1-ED prepared by transformation of Escherichia coli with a MUC1 expression plasmid (pMUC1); SEQ ID NO:2 per b204 |  | 93% | survival over seven days [2]: ~45%; number of Pa recovered from BALF (CFU) (Pa lung infection): reduced the number of Pa recovered; number of Pa recovered from lungs (CFU) (Pa lung infection): reduced the number of Pa recovered; maximum inhibition of Pa adhesion ([1]; comparison in the discussion, single repeat vs MUC1-ED containing 15 repeats): > 90% |
| MUC1-ED from GalNAc-O-bn-treated ECs: MUC1-ED from supernates of airway ECs cultured with the O-glycosylation inhibitor benzyl-N-acetyl-α-galactosaminide |  | 88% |  |
| MUC1-ED from tunicamycin-treated ECs: MUC1-ED from supernates of airway ECs cultured with the N-glycosylation inhibitor tunicamycin |  | did not reduce Pa adhesion |  |
| MUC1-ED: shed MUC1 ectodomain in airway EC culture supernates |  |  | MUC1-ED concentrations capable of inhibiting Pa adhesion in vitro ([1]; shed MUC1-ED in EC culture supernates (FIGS. 9A, 9B)): ≤ 0.63 μg/m1 |
| desialylated MUC1-ED from Ad-NEU1-infected ECs: MUC1-ED prepared from culture supernates of airway ECs infected with Ad-NEU1 |  | ~65% |  |
